pIC50: −log10 of the molar value. Structures can show the parent of a compound that is named as a salt.
molecular target: T1, hERG (Homo sapiens, UniProt Q12809); assay: Tox21 qHTS FluxOR thallium flux assay in hERG-U2OS cells; details: not given
Method: The hERG-U2OS cell line was purchased from Codex BioSolution, Inc. (Gaithersburg, MD, USA). All the cell culture reagents were obtained from Invitrogen (Life Technologies, Madison, WI, USA). The hERG-U2OS cells were cultured in DMEM with Glutamax containing 10% fetal bovine serum (FBS), 1% of Non-Essential AA (NEAA), 50 U/mL penicillin, 50 μg/mL streptomycin, and 1 µg/mL puromycin. The cells were maintained at 37 °C under a humidified atmosphere and 5% CO2.
A FluxORTM thallium flux assay was performed in hERG-U2OS cells with stable hERG expression, as previously described. In this assay, thallium ions are used as surrogates for K^+ ions to monitor the activity of the hERG K^+ channel. […] The hERG-U2OS cells suspended in culture medium were dispensed at 1000 cells/well/3μL into 1536-well, black wall/clear-bottom plates using a Multidrop Combi dispenser (Thermo Fisher, Waltham, MA, USA). After the assay plates were incubated at 37 °C overnight, 3 μL of Loading Buffer provided from FluxOR II Potassium Ion Channel Assay Kit (Life Technologies, Carlsbad, CA, USA) was added to each assay well. The assay plates were then incubated at room temperature in the dark for 1 h, followed by the addition of 23 nL of compound, dissolved in DMSO, DMSO only, or positive control, to the assay plate. Each compound was tested at 15 concentrations in three independent runs.
Multiple criteria were used to select each small molecule, including properties allowing for high-throughput screens (HTS) (molecular weight, volatility, solubility, logP), commercial availability, possible and definite environmental hazards, or exposure concerns, and cost. A diverse group of 88 compounds was selected to be used as an internal control and plated in duplicate on each library plate to perform reproducibility analysis as well as to determine positional plate effects. Each compound in the Tox21 10K compound library was subjected to analytical chemistry quality control (QC), which provides information on the purity and identity of each sample. […] The compounds were serially diluted in Dimethylsulfoxide (DMSO) to 15 concentrations in 1536-well plates, covering a concentration range of up to four orders of magnitude.
Many of these chemicals were sourced independently by NTP/EPA/NCATS from different vendors or the same vendor but different batches; these chemicals have been tested in replicates. Compound concentration-response data analysis was performed as previously described. […] The dataset was then corrected using the DMSO-only compound plates at the beginning and end of the compound plate stack by applying an in-house pattern correction algorithm. The half-maximum inhibition values (IC50) for each compound and maximum response (efficacy) values were obtained by fitting the concentration-response curves of each compound to a four-parameter Hill equation [24]. […] To identify chemicals with the potential to inhibit the hERG channel, we selected only antagonist chemicals with curve rank −5 to −9.

T1 sequence (Q12809 whole entry): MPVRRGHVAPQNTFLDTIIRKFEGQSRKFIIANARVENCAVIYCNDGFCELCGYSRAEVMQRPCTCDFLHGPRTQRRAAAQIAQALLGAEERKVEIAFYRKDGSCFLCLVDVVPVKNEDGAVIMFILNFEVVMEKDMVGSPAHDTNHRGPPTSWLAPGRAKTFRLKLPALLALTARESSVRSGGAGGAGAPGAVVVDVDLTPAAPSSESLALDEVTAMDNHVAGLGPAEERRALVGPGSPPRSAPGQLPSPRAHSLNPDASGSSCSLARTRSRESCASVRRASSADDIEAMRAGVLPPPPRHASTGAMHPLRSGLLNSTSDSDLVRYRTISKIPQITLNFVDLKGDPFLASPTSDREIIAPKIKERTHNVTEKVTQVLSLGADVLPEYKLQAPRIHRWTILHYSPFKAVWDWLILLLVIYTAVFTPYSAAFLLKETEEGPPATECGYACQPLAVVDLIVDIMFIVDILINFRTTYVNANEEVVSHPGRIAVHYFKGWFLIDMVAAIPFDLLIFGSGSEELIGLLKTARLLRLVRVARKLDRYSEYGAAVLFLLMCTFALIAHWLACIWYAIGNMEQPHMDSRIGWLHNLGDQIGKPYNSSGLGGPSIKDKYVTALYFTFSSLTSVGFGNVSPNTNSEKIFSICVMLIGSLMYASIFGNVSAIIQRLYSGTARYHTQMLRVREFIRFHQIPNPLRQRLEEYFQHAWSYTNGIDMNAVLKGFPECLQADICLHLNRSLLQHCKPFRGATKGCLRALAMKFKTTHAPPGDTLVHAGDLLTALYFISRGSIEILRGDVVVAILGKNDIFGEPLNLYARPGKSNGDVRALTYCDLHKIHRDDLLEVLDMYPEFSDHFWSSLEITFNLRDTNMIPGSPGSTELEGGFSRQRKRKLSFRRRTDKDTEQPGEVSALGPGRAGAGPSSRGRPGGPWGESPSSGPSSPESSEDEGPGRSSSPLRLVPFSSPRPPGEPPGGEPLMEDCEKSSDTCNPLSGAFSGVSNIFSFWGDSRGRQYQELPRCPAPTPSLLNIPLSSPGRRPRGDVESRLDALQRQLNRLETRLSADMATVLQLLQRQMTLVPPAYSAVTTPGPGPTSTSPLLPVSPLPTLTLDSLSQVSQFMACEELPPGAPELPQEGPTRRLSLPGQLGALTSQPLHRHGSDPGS

| SMILES | activity outcome for hERG inhibition in the assay | Aff (affinity classification) |
| --- | --- | --- |
| O=S1OCC2C(CO1)C1(Cl)C(Cl)=C(Cl)C2(Cl)C1(Cl)Cl (stereo not drawn) [Endosulfan] | inhibitory activity |  |
| O=C(CCCN1CCC(O)(c2ccc(Cl)cc2)CC1)c1ccc(F)cc1 [Haloperidol] | most active |  |
| CC(CCc1ccccc1)NCC(O)c1ccc(O)c(C(N)=O)c1 (stereo not drawn) [Labetalol] | active |  |
| CCCCCCCC[N+](C)(CCCCCCCC)CCCCCCCC.O=S(=O)([O-])C(F)(F)F [Methyltrioctylammonium trifluoromethanesulfonate] | most active | 1 |
| O=c1[nH]c2ccccc2n1C1CCN(CCCC(c2ccc(F)cc2)c2ccc(F)cc2)CC1 [Pimozide] | most active |  |

same assay, conditions: (-LOG10(IC50), µM), Supplementary File S2, Tox21 chemical library

| SMILES | IC50 |
| --- | --- |
| CCNC(=O)N1CCN(CCCC(c2ccc(F)cc2)c2ccc(F)cc2)CC1 [Amperozide hydrochloride] | 0.0916 µM |
| OC(CN1CCC(Cc2ccc(F)cc2)CC1)c1ccc(Cl)cc1 (stereo not drawn) [Eliprodil] | 0.0916 µM |

same assay, conditions: IC50, hERG-U2OS cells, thallium flux, qHTS, 15 concentrations, three runs

| SMILES | pIC50 |
| --- | --- |
| OC(CN1CCC(Cc2ccc(F)cc2)CC1)c1ccc(Cl)cc1 (stereo not drawn) [Eliprodil] | 7.05 |
| Cc1nc2sccn2c(=O)c1CCN1CCC(=C(c2ccc(F)cc2)c2ccc(F)cc2)CC1 [Ritanserin] | 6.74 |

same assay, conditions: hERG-U2OS cells, thallium flux, qHTS; result in words

| SMILES | activity outcome for hERG inhibition in the assay |
| --- | --- |
| CCCCCCCCCCn1cc[n+](CCCCCCCCCC)c1C.[Cl-] [3-Didecyl-2-methylimidazolium chloride] | most active |
| O=c1[nH]cc(F)c(=O)[nH]1 [5-fluorouracil] | inactive |
| CO.COc1cc(Nc2c(C#N)cnc3cc(OCCCN4CCN(C)CC4)c(OC)cc23)c(Cl)cc1Cl [Bosutinib methanoate] | showing activity against hERG |
| O=C(CCCN1CCC(O)(c2ccc(Br)cc2)CC1)c1ccc(F)cc1 [Bromperidol] | most active |
| C/C=C/C(=O)Oc1ccccc1[N+](=O)[O-] [Dinocap] | inhibitory activity |
| O=c1[nH]c2ccccc2n1CCCN1CCC(n2c(=O)[nH]c3cc(Cl)ccc32)CC1 [Domperidone] | showing activity against hERG |
| OC(CN1CCC(Cc2ccc(F)cc2)CC1)c1ccc(Cl)cc1 (stereo not drawn) [Eliprodil] | most active |
| O=C1NCN(c2ccccc2)C12CCN(CCCC(c1ccc(F)cc1)c1ccc(F)cc1)CC2 [Fluspirilene] | most active |
| CS(=O)(=O)CCNCc1ccc(-c2ccc3ncnc(Nc4ccc(OCc5cccc(F)c5)c(Cl)c4)c3c2)o1 [Lapatinib] | showing activity against hERG |
| CC(C)(C)c1ccc(CSc2cnn(C(C)(C)C)c(=O)c2Cl)cc1 [Pyridaben] | inhibitory activity |
| Cc1nc2sccn2c(=O)c1CCN1CCC(=C(c2ccc(F)cc2)c2ccc(F)cc2)CC1 [Ritanserin] | most active |
| CC(C)NCC(O)c1ccc(NS(C)(=O)=O)cc1 (stereo not drawn) [Sotalol] | active |
| O=C(CCCN1CCC(O)(c2cccc(C(F)(F)F)c2)CC1)c1ccc(F)cc1 [Trifluperidol] | most active |
| Clc1ccc(C(c2ccccc2Cl)C(Cl)(Cl)Cl)cc1 (stereo not drawn) [o p’-DDT] | inhibitory activity |

molecular target: T1, hERG; assay: cell-based; details: (-LOG10(IC50), µM)

| SMILES | IC50 |
| --- | --- |
| O=C(CCCN1CCC(O)(c2ccc(Br)cc2)CC1)c1ccc(F)cc1 [Bromperidol] | 0.249 µM |
| C/C=C/C(=O)Oc1ccccc1[N+](=O)[O-] [Dinocap] | 20.3 µM |
| O=S1OCC2C(CO1)C1(Cl)C(Cl)=C(Cl)C2(Cl)C1(Cl)Cl (stereo not drawn) [Endosulfan] | 32.1 µM |
| CC(CCc1ccccc1)NCC(O)c1ccc(O)c(C(N)=O)c1 (stereo not drawn) [Labetalol] | 13.3 µM |
| CCCCCCCC[N+](C)(CCCCCCCC)CCCCCCCC.O=S(=O)([O-])C(F)(F)F [Methyltrioctylammonium trifluoromethanesulfonate] | 0.109 µM |
| CC(C)(C)c1ccc(CSc2cnn(C(C)(C)C)c(=O)c2Cl)cc1 [Pyridaben] | 18.8 µM |
| CC(CN(C)C)CN1c2ccccc2CCc2ccccc21 (stereo not drawn) [Trimipramine hydrogen maleate] | 14.5 µM |
| CCN(CC)CCOc1ccc(C(O)(Cc2ccc(Cl)cc2)c2ccc(C)cc2)cc1 (stereo not drawn) [Triparanol] | 1.11 µM |
| CN(C)CCN(Cc1ccccc1)c1ccccn1 [Tripelennamine citrate] | 12.7 µM |
| C(=C(c1ccccc1)c1ccccc1)c1ccccc1 [Triphenylethylene] | 18.1 µM |
| O[Si](c1ccccc1)(c1ccccc1)c1ccccc1 [Triphenylsilanol] | 21.9 µM |
| O=P(OCC(Br)CBr)(OCC(Br)CBr)OCC(Br)CBr (stereo not drawn) [Tris(2,3-dibromopropyl) phosphate] | 16.9 µM |
| CN1[C@@H]2CC[C@H]1C[C@@H](OC(=O)c1c[nH]c3ccccc13)C2 [Tropisetron] | 12.9 µM |
| CCCOc1ccc(S(=O)(=O)N2CCN(CC)CC2)cc1-c1nc2c(CC)n(Cc3ccccn3)nc2c(=O)[nH]1 [UK-343664] | 21.9 µM |
| CN[C@H]1CC[C@@H](c2ccc(Cl)c(Cl)c2)c2ccc(S(N)(=O)=O)cc21 [UK-373911] | 6.92 µM |
| CSc1ccc(Oc2ccc(S(N)(=O)=O)cc2CN(C)C)cc1C [UK-416244] | 8.71 µM |
| CC[C@]12CCCN3CCc4c(n(c5ccccc45)[C@@](O)(C(=O)OC)C1)[C@@H]32 [Vincamine] | 1.33 µM |
| CCC1=C[C@@H]2CN(C1)Cc1c([nH]c3ccccc13)[C@@](C(=O)OC)(c1cc3c(cc1OC)N(C)[C@H]1[C@@](O)(C(=O)OC)[C@H](OC(C)=O)[C@]4(CC)C=CCN5CC[C@]31[C@@H]54)C2 [Vinorelbine tartrate] | 6.49 µM |
| CCOC(=O)C1=C[C@]2(CC)CCCN3CCc4c(n1c1ccccc41)[C@@H]32 [Vinpocetine] | 0.169 µM |
| FC(F)(F)c1cccc(C2=CCN(CCc3ccc4ccccc4c3)CC2)c1 [Xaliproden hydrochloride] | 1.76 µM |

| SMILES | IC50 |
| --- | --- |
| COC(=O)[C@@H]1[C@H]2C[C@H]3c4[nH]c5ccccc5c4CCN3C[C@@H]2CC[C@@H]1O [Yohimbine] | 23.9 µM |
| CC1(CN2CCC(n3c(=O)[nH]c4ccccc43)CC2)OCc2ccccc2-n2cccc21 (stereo not drawn) [Zaldaride] | 8.82 µM |
| c1ccc(C(O[C@H]2CCCN(CCc3ccc4c(c3)OCO4)C2)c2ccccc2)cc1 [Zamifenacin fumarate] | 0.535 µM |
| c1ccc(C(O[C@@H]2CCCN(CCc3ccc4c(c3)OCO4)C2)c2ccccc2)cc1 [Zamifenacin] | 0.838 µM |
| O=C(CCC1CCN(Cc2ccccc2)CC1)c1ccc2c(c1)NCCCC2 [Zanapezil fumerate] | 4.59 µM |
| COc1ccc(CCN(C)CCCN2CCc3cc(OC)c(OC)cc3CC2=O)cc1OC [Zatebradine hydrochloride] | 10.1 µM |
| C[C@H]1CCC[C@H](O)CCCCCc2cc(O)cc(O)c2C(=O)O1 [Zearalanol] | 55.4 µM |
| c1cc(CN2CCCCC2)cc(OCCCNc2nc3ccccc3s2)c1 [Zolantidine dimaleate] | 9.16 µM |
| CCC(C)(NC(=O)c1cc(Cl)c(C)c(Cl)c1)C(=O)CCl (stereo not drawn) [Zoxamide] | 39.1 µM |
| Cl[C@H]1[C@H](Cl)[C@@H](Cl)[C@H](Cl)[C@H](Cl)[C@H]1Cl [alpha-1,2,3,4,5,6-Hexachlorocyclohexane] | 49.4 µM |
| OCCN1CCN(CC/C=C2/c3ccccc3Sc3ccc(C(F)(F)F)cc32)CC1 [cis-Flupentixol] | 1.69 µM |
| Cl[C@H]1[C@H](Cl)[C@@H](Cl)[C@H](Cl)[C@@H](Cl)[C@H]1Cl [delta-Hexachlorocyclohexane] | 51.9 µM |
| ClC(Cl)=C(c1ccc(Cl)cc1)c1ccccc1Cl [o,p'-DDE] | 21 µM |
| Clc1ccc(C(c2ccccc2Cl)C(Cl)(Cl)Cl)cc1 (stereo not drawn) [o,p'-DDT] | 21.5 µM |
| Clc1ccc(C(c2ccc(Cl)cc2)C(Cl)Cl)cc1 [p,p'-DDD] | 25.5 µM |
| ClC(Cl)=C(c1ccc(Cl)cc1)c1ccc(Cl)cc1 [p,p'-DDE] | 27.5 µM |
| CCc1ccc(C(c2ccc(CC)cc2)C(Cl)Cl)cc1 [p,p'-Ethyl-DDD] | 17.7 µM |
| CCOP(=S)(OCC)Oc1ccc([N+](=O)[O-])cc1 [parathion] | 45.9 µM |
| O=P(Oc1ccccc1)(Oc1ccccc1)Oc1ccccc1 [triphenyl phosphate] | 32.1 µM |
